Assay results taken from the NIST ThermoML archive (doi:10.1016/j.fluid.2005.05.012).

Test: xn = mol fraction of the nth substance listed
Settings: 101.33 kPa, Liquid

CC(C)O [propan-2-ol] + CN1CCNCC1
x1 = 1
Settings | mass density [kg/m3] | viscosity [mPa·s]
293.15 K | 785.84 | 2.405
298.15 K | 781.3 | 2.062
303.15 K | 777.41 | 1.782

CC(C)CO [2-methyl-1-propanol] + CN1CCNCC1
x1 = 1
Settings | mass density [kg/m3] | viscosity [mPa·s]
293.15 K | 801.58 | 3.994
298.15 K | 798.09 | 3.334
303.15 K | 794.09 | 2.794

CN1CCNCC1 [N-methylpiperazine] + CC(C)CO
Settings | mass density, 293.15 K [kg/m3] | mass density, 298.15 K [kg/m3] | mass density, 303.15 K [kg/m3] | viscosity, 293.15 K [mPa·s] | viscosity, 298.15 K [mPa·s] | viscosity, 303.15 K [mPa·s]
x2 = 0 | 903.78 | 899.8 | 894.55 | 2.1 | 1.841 | 1.624
x2 = 0.0515 | 901.11 | 897.16 | 891.98 | 2.237 | 1.941 | 1.699
x2 = 0.0983 | 898.38 | 894.46 | 889.35 | 2.361 | 2.046 | 1.781
x2 = 0.1506 | 895.07 | 891.19 | 886.16 | 2.542 | 2.198 | 1.914
x2 = 0.2011 | 891.66 | 887.82 | 882.88 | 2.728 | 2.354 | 2.039
x2 = 0.2971 | 884.72 | 880.97 | 876.18 | 3.084 | 2.647 | 2.288
x2 = 0.402 | 876.51 | 872.85 | 868.24 | 3.469 | 2.957 | 2.541
x2 = 0.4982 | 868.29 | 864.71 | 860.24 | 3.838 | 3.249 | 2.785
x2 = 0.6001 | 858.58 | 855.07 | 850.74 | 4.142 | 3.504 | 2.999
x2 = 0.6995 | 847.72 | 844.25 | 840.04 | 4.382 | 3.693 | 3.151
x2 = 0.7978 | 835.15 | 831.71 | 827.6 | 4.487 | 3.789 | 3.211
x2 = 0.8995 | 819.74 | 816.28 | 812.25 | 4.423 | 3.708 | 3.116

CCCO [propan-1-ol] + CN1CCNCC1
x1 = 1
Settings | mass density [kg/m3] | viscosity [mPa·s]
293.15 K | 803.79 | 2.194
298.15 K | 799.74 | 1.945
303.15 K | 795.68 | 1.73

CCO [ethanol] + CN1CCNCC1
x1 = 1
Settings | mass density [kg/m3] | viscosity [mPa·s]
293.15 K | 789.32 | 1.17
298.15 K | 785.06 | 1.078
303.15 K | 780.68 | 0.982

CO [methanol] + CN1CCNCC1
x1 = 1
Settings | mass density [kg/m3] | viscosity [mPa·s]
293.15 K | 791.09 | 0.593
298.15 K | 786.48 | 0.551
303.15 K | 781.22 | 0.509

CCCCO [butan-1-ol] + CN1CCNCC1
x1 = 1
Settings | mass density [kg/m3] | viscosity [mPa·s]
293.15 K | 809.97 | 2.938
298.15 K | 806.15 | 2.572
303.15 K | 802.14 | 2.271

CN1CCNCC1 [N-methylpiperazine] + CCCO
Settings | mass density, 293.15 K [kg/m3] | mass density, 298.15 K [kg/m3] | mass density, 303.15 K [kg/m3] | viscosity, 293.15 K [mPa·s] | viscosity, 298.15 K [mPa·s] | viscosity, 303.15 K [mPa·s]
x2 = 0 | 903.79 | 899.8 | 894.54 | 2.1 | 1.841 | 1.624
x2 = 0.1017 | 899.72 | 895.76 | 890.62 | 2.24 | 1.962 | 1.716
x2 = 0.1987 | 895.17 | 891.23 | 886.21 | 2.369 | 2.058 | 1.809
x2 = 0.3 | 889.62 | 885.71 | 880.86 | 2.536 | 2.2 | 1.932
x2 = 0.4007 | 883.15 | 879.31 | 874.64 | 2.689 | 2.326 | 2.035
x2 = 0.4998 | 875.68 | 871.91 | 867.4 | 2.817 | 2.438 | 2.129
x2 = 0.5504 | 871.35 | 867.6 | 863.18 | 2.863 | 2.478 | 2.167
x2 = 0.6011 | 866.59 | 862.85 | 858.5 | 2.895 | 2.506 | 2.192
x2 = 0.6542 | 861.09 | 857.34 | 853.04 | 2.885 | 2.504 | 2.193
x2 = 0.7001 | 855.83 | 852.05 | 847.8 | 2.874 | 2.497 | 2.186
x2 = 0.7495 | 849.57 | 845.75 | 841.53 | 2.833 | 2.473 | 2.175
x2 = 0.7991 | 842.55 | 838.67 | 834.47 | 2.752 | 2.413 | 2.124
x2 = 0.902 | 825.1 | 821.08 | 816.93 | 2.54 | 2.23 | 1.98

CN1CCNCC1 [N-methylpiperazine] + CO
Settings | mass density, 293.15 K [kg/m3] | mass density, 298.15 K [kg/m3] | mass density, 303.15 K [kg/m3] | viscosity, 293.15 K [mPa·s] | viscosity, 298.15 K [mPa·s] | viscosity, 303.15 K [mPa·s]
x2 = 0 | 903.8 | 899.8 | 894.52 | 2.1 | 1.841 | 1.624
x2 = 0.1021 | 902.85 | 899.04 | 893.84 | 2.103 | 1.849 | 1.643
x2 = 0.1999 | 901.87 | 898.08 | 892.86 | 2.147 | 1.897 | 1.692
x2 = 0.3286 | 899.35 | 895.54 | 890.39 | 2.167 | 1.924 | 1.722
x2 = 0.4143 | 896.64 | 892.82 | 887.8 | 2.141 | 1.897 | 1.676
x2 = 0.4991 | 892.94 | 889.13 | 884.25 | 2.04 | 1.8 | 1.61
x2 = 0.6016 | 886.48 | 882.68 | 877.91 | 1.875 | 1.654 | 1.475
x2 = 0.6999 | 876.84 | 873 | 868.21 | 1.62 | 1.447 | 1.299
x2 = 0.7998 | 860.91 | 856.96 | 851.99 | 1.306 | 1.169 | 1.06
x2 = 0.8999 | 834.46 | 830.26 | 825.04 | 0.935 | 0.854 | 0.788
